Assay results: PMC4511415, “Inhibition of ANO1/TMEM16A Chloride Channel by Idebenone and Its Cytotoxicity to Cancer Cell Lines” (PLoS ONE, 2015)

Biological target: T1, ANO1 (anoctamin 1, TMEM16A) (Homo sapiens, UniProt Q5XXA6)
T1 construct: human ANO1(abc)
T1 sequence (Q5XXA6 1-986): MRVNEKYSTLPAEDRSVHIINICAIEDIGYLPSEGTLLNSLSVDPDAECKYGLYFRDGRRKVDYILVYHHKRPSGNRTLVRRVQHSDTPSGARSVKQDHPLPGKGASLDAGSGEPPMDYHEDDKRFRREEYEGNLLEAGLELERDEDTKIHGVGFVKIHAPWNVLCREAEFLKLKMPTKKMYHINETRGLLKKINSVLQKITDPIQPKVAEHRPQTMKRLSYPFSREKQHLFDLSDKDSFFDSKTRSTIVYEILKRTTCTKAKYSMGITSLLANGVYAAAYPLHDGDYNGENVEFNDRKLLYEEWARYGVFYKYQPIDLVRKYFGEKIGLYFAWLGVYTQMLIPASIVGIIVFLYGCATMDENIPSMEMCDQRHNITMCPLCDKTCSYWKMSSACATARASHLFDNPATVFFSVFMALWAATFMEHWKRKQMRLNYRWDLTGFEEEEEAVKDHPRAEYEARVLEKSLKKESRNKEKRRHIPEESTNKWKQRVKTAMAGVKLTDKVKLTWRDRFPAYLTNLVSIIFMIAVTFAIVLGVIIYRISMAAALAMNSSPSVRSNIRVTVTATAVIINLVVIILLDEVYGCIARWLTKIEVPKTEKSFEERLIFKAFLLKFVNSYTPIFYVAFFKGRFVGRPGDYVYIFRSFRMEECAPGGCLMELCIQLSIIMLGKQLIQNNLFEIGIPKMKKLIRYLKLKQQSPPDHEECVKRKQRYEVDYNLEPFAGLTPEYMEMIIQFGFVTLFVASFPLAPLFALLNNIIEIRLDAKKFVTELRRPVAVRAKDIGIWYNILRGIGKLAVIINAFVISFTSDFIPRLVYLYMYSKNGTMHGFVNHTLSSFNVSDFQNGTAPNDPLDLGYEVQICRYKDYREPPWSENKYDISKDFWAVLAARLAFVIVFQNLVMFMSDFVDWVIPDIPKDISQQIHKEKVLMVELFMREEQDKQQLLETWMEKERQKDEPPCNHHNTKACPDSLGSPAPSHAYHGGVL
Experiment: apical membrane current (Ussing chamber) in FRT-ANO1 cells; whole-cell patch clamp; YFP iodide influx
Assay type: cell-based

IC50: 9.2 µM
SMILES: COC1=C(OC)C(=O)C(CCCCCCCCCCO)=C(C)C1=O [idebenone, 2,3-dimethoxy-5-methyl-6-(10-hydroxydecyl)-21,4-benzoquinone]
